# Data published in a melting point compilation (Tetko et al.; mined from patent text by program, amines drawn as free bases though some values may be those of a salt).
row,melting point [°C],Structure (SMILES)
1,46 to 47,CC(C)(CO)NCc1ccccc1
2,133,CS(=O)(=O)c1ccc(NCC(O)CO)c([N+](=O)[O-])c1 (stereo not given)
3,190 to 195,CC1=CN2C(=NC(c3ccc(C)cc3)C2C(=O)C(=O)O)C=C1 (stereo not given)
4,112 to 116,CCCCCNC(=O)c1cnc2cccc(C)n2c1=O
5,112 to 117,CCCc1c(CSc2nccc(OCC(=O)OCC)n2)ccc(C(C)=O)c1O
6,85 to 87,COC(=O)CN(c1ccccc1)c1ccc(OC)cc1C(=O)OC
7,125 to 128,CNC(=O)c1c(-c2ccccc2)noc1CC(=O)c1ccccc1
8,55 to 61,CCOC(=O)[C@H]1O[C@@H]1[C@H](Cc1ccccc1)NC(=O)OC(C)(C)C
9,49 to 52,CC(=O)C(C)(C)COS(=O)(=O)c1ccc(C)cc1
10,113 to 115,C=CCOc1cccn2c(=O)cc(C)nc12
11,220 to 221,CN(c1cccc2cc(C(N)=O)[nH]c12)S(=O)(=O)c1nccs1
12,190 to 192,CC(=O)OCC1OC(n2cc(C=O)c3c(F)cccc32)C(OC(C)=O)C(OC(C)=O)C1OC(C)=O (stereo not given)
13,73 to 74,CCOC(=O)c1ccc(NCCCOc2ccccc2)cc1
14,255 to 256,CN(c1ccc(Cl)cc1)c1nc(=O)c2ccncc2s1
15,221 to 223,CCc1cn2c(=O)c(C(=O)O)cnc2c2ccccc12
16,60 to 61,COC(=O)c1cc(-c2ccc(C(F)(F)F)cc2)oc1COC(C)=O
17,145 to 148,O=C(O)C(=O)CC(=O)c1cccn1Cc1ccc(F)c(F)c1
18,210 to 214,COc1cncnc1N1CCN(CCCc2c[nH]c3ccc(CNS(C)(=O)=O)cc23)CC1C (stereo not given)
19,197,O=C(NCc1cccnc1)c1ccc2n1Cc1ccccc1N(C(=O)c1ccccc1)C2
20,215 to 216,COc1ccc(S(=O)(=O)NC(=O)c2ccc(C(=O)OC(C)C)nc2)cc1

# Continued, compound first:
row,Structure (SMILES),melting point [°C]
1,CC(C)Oc1ccc([N+](=O)[O-])cc1C(F)(F)F,34 to 36
2,CC(C)COC(=O)N1CCN(C2=C(Cl)C(=O)c3ccccc3C2=O)CC1,92 to 94
3,COc1ccnc(CSc2nc3cc(C(F)(F)F)ccc3[nH]2)c1C,148
4,O=C1Nc2ccc(C(F)(F)F)cc2C1c1ncnc2nn(C3CCCC3)cc12 (stereo not given),292 to 293
5,Cc1cnn(C(C)C(=O)N(C)C)c1-c1ccccc1 (stereo not given),88 to 90
6,O=C(NC[C@@H]1CN2C(=O)C[C@H]2O1)C1CCCCC1 (racemic),83 to 85
7,CCOCc1nc2c(N)nc3ccccc3c2n1Cc1ccccc1,204 to 205
8,COc1cc2c(cc1OC)C1CCC(O)CC1N=C2c1ccc(OCC2CC2)c(OCC2CC2)c1 (stereo not given),172 to 174
9,O=C(O)CSC(c1ccccc1)c1ccccc1,126 to 129
10,"CCCCCCOC(C)c1ccc(-c2ccc(OCc3ccccc3)cc2)cc1 (single isomer, unassigned; (+))",61 to 63
11,CC1(C)CC(=O)C1(Cl)CC(Cl)(Cl)Cl (stereo not given),75 to 76
12,CCCCCCCCCCCCCCCCOc1cc(C(=O)O)c(O)c2ccccc12,121 to 124
13,CC(C)Nc1ncc2c(n1)N(C)C(=O)C2,120 to 123
14,Brc1cc2c(cc1Br)Sc1ccccc1S2,160 to 161
15,CCOc1ccc(OCc2ccc(OCc3nc(-c4ccccc4)oc3C)cc2)c(CCC(=O)O)c1,115 to 116
16,CC(=O)c1ccc(N)c(C#N)c1Cl,189 to 193
17,CCCCc1cn(-c2ccccc2C(C)C)c(=O)n1Cc1ccc(-c2ccccc2-c2nnn[nH]2)cc1,167 to 168
18,CCCc1nc2c(N)nc3cc(-c4ccc(NC(C)=O)cc4)ccc3c2s1,252 to 255
19,COc1ccc(C2(c3cccc(CCc4ccccc4)n3)OCCCO2)cc1OC,86 to 87
20,CCOC(=O)C1=C(C)Nc2ncnc(OC(C)C)c2C1c1ccccc1 (stereo not given),201 to 202
21,CCOC(=O)c1cnn(-c2c(Cl)cc(C(F)(F)F)cc2Cl)c1Br,80 to 82
22,O=C(O)c1cn(C2CC2)c2nc(N3CCC(n4ccnn4)CC3)c(F)cc2c1=O,246 to 248
23,CCCCCCCCCCCOc1cccc(CCCC(NC(C)=O)(C(=O)OCC)C(=O)OCC)c1,38 to 39
24,COc1cc2c(cc1Cl)CCOC2c1ccc([N+](=O)[O-])cc1 (stereo not given),150 to 153
25,Ic1cccc2c(SSc3cccc4c(I)cccc34)cccc12,202 to 203
26,CC1(C)CCC(C)(C)c2cc3c(cc21)OCC3(C)c1cc(CO)cs1 (stereo not given),127
27,COc1ccccc1OCC(O)CN1CCC2(CC1)CNC(=O)O2 (stereo not given),124 to 125
28,CC1CC(=O)C(C(=O)CCC2CCCO2)C(=O)O1 (stereo not given),43 to 45
29,N#Cc1c(N2CCCCC2)cc(-c2cccs2)c2c1Cc1ccccc1-2,148 to 150
30,Cc1cnc2c(c1)C(=O)c1cc(-c3ccccc3)c(=O)[nH]c1C2=O,275
